Values of other authors as cited in patent US7618650B2, “Combination of a hypnotic agent and substituted bis aryl and heteroaryl compound and therapeutic application thereof” (Aventis Pharmaceuticals Inc, priority 2005, dated 2009).

Settings: average dosage between 5 and 10 mg in a conventional formulation

Cc1ccc(-c2nc3ccc(C)cn3c2CC(=O)N(C)C)cc1 [Zolpidem, zolpidem]
half life, average value: about 2.4 hours
